From paper PMC6104039 (Nature Communications, 2018) come the findings set out here.

For this assay, the system named is HEK293 cells. Nature of the assay: Endogenous ceramide, HexCer and SM levels in cells treated 24 h, targeted LC-MS/MS. The settings on record: HEK293 cells, 24 h. Format: cell-based. The procedure:
Lipids were then extracted using MTBE/methanol/water as described above.
HEK293 cell culture experiment: Levels of each lipid in P053-treated HEK293 cells were normalised to the mean of the vehicle control group, and each concentration was compared to the control using ANOVA with Dunnett’s post-test. P values were adjusted for multiple comparisons in GraphPad PRISM.
Supplementary Figure 1. Ceramide, SM, and HexCer levels in HEK293 cells treated with
P053. Absolute lipid levels were determined by targeted LC-MS/MS, relative to external
standard curves. Results are mean ± SEM (n = 4) from one of two identical experiments.
Statistically significant results, based on two independent experiments, are as indicated in
Figure 2b-d. Raw data for these figures is provided in Supplementary Data File 1.

Molecules are shown by their SMILES. Where “and” joins values, the source holds several entries; their conditions need not be identical. Equal values may be shown once.

Take `C[C@@](N)(CO)CCc1ccc(OCc2ccc(Cl)c(Cl)c2)cc1` [P053, (S)-2-amino-4-(4-(3,4-dichlorobenzyloxy)phenyl)-2-methylbutan-1-ol]: under “P053 100 nM”, the “16:0 Cer level” value was 93.0789 percentage of the vehicle control group and 87.8624 percentage of the vehicle control group and 90.7567 percentage of the vehicle control group and 99.4946 percentage of the vehicle control group and 119.082 percentage of the vehicle control group and 99.8119 percentage of the vehicle control group and 116.788 percentage of the vehicle control group and 98.8463 percentage of the vehicle control group; the “16:0 HexCer level” value is 72.1291 percentage of the vehicle control group and 81.3101 percentage of the vehicle control group and 75.1757 percentage of the vehicle control group and 88.1626 percentage of the vehicle control group and 92.7296 percentage of the vehicle control group and 94.3662 percentage of the vehicle control group and 88.291 percentage of the vehicle control group and 103.879 percentage of the vehicle control group; the “16:0 SM level” value is 96.6683 percentage of the vehicle control group and 97.496 percentage of the vehicle control group and 96.0726 percentage of the vehicle control group and 98.7215 percentage of the vehicle control group and 93.8292 percentage of the vehicle control group and 95.9275 percentage of the vehicle control group and 94.8581 percentage of the vehicle control group and 102.543 percentage of the vehicle control group; the “16:1 SM level” value was 104.314 percentage of the vehicle control group and 87.7756 percentage of the vehicle control group and 92.2071 percentage of the vehicle control group and 111.506 percentage of the vehicle control group and 103.607 percentage of the vehicle control group and 109.147 percentage of the vehicle control group and 99.9145 percentage of the vehicle control group and 113.03 percentage of the vehicle control group. Moreover, under “P053 100 nM”, the “18:0 Cer level” value is 51.8361 percentage of the vehicle control group and 34.0436 percentage of the vehicle control group and 43.3209 percentage of the vehicle control group and 47.0876 percentage of the vehicle control group and 49.1716 percentage of the vehicle control group and 60.878 percentage of the vehicle control group and 53.1013 percentage of the vehicle control group and 34.6023 percentage of the vehicle control group; the “18:0 HexCer level” value is 26.076 percentage of the vehicle control group and 45.6733 percentage of the vehicle control group and 33.7976 percentage of the vehicle control group and 35.7543 percentage of the vehicle control group and 29.3831 percentage of the vehicle control group and 38.4787 percentage of the vehicle control group and 45.094 percentage of the vehicle control group and 48.7 percentage of the vehicle control group; the “18:0 SM level” value was 58.3863 percentage of the vehicle control group and 60.4391 percentage of the vehicle control group and 60.0968 percentage of the vehicle control group and 58.0444 percentage of the vehicle control group and 61.8417 percentage of the vehicle control group and 67.9073 percentage of the vehicle control group and 68.1366 percentage of the vehicle control group and 74.9383 percentage of the vehicle control group; the “18:1 SM level” value is 67.1121 percentage of the vehicle control group and 61.0781 percentage of the vehicle control group and 66.2487 percentage of the vehicle control group and 67.0185 percentage of the vehicle control group and 69.283 percentage of the vehicle control group and 68.5826 percentage of the vehicle control group and 71.1925 percentage of the vehicle control group. Where the note is “P053 100 nM”, the “20:0 Cer level” value is 85.7665 percentage of the vehicle control group and 109.856 percentage of the vehicle control group and 101.721 percentage of the vehicle control group and 86.1177 percentage of the vehicle control group and 103.673 percentage of the vehicle control group and 96.5034 percentage of the vehicle control group and 78.6868 percentage of the vehicle control group; the “22:0 Cer level” value was 109.852 percentage of the vehicle control group and 94.2148 percentage of the vehicle control group and 84.7703 percentage of the vehicle control group and 98.1236 percentage of the vehicle control group and 119.57 percentage of the vehicle control group and 118.497 percentage of the vehicle control group and 136.979 percentage of the vehicle control group and 110.794 percentage of the vehicle control group; the “22:0 HexCer level” value is 96.8671 percentage of the vehicle control group and 87.3308 percentage of the vehicle control group and 81.4727 percentage of the vehicle control group and 94.5887 percentage of the vehicle control group and 107.975 percentage of the vehicle control group and 124.49 percentage of the vehicle control group and 104.798 percentage of the vehicle control group and 129.338 percentage of the vehicle control group; the “22:0 SM level” value was 88.1464 percentage of the vehicle control group and 112.339 percentage of the vehicle control group and 83.7907 percentage of the vehicle control group and 79.4494 percentage of the vehicle control group and 115.966 percentage of the vehicle control group and 112.687 percentage of the vehicle control group and 121.861 percentage of the vehicle control group and 131.998 percentage of the vehicle control group. Moreover, where the note is “P053 100 nM”, the “22:1 SM level” value was 110.7 percentage of the vehicle control group and 102.614 percentage of the vehicle control group and 109.89 percentage of the vehicle control group and 108.27 percentage of the vehicle control group and 108.462 percentage of the vehicle control group and 113.237 percentage of the vehicle control group and 107.396 percentage of the vehicle control group and 108.45 percentage of the vehicle control group; the “24:0 HexCer level” value was 91.3427 percentage of the vehicle control group and 87.2698 percentage of the vehicle control group and 81.8027 percentage of the vehicle control group and 92.8624 percentage of the vehicle control group and 100.187 percentage of the vehicle control group and 107.186 percentage of the vehicle control group and 106.263 percentage of the vehicle control group and 116.702 percentage of the vehicle control group; the “24:0 SM level” value was 117 percentage of the vehicle control group and 90.9141 percentage of the vehicle control group and 93.8706 percentage of the vehicle control group and 115.93 percentage of the vehicle control group and 114.197 percentage of the vehicle control group and 134.57 percentage of the vehicle control group and 140.981 percentage of the vehicle control group; the “24:1 Cer level” value is 110.817 percentage of the vehicle control group and 85.3956 percentage of the vehicle control group and 97.052 percentage of the vehicle control group and 96.6841 percentage of the vehicle control group and 128.871 percentage of the vehicle control group and 121.829 percentage of the vehicle control group and 142.778 percentage of the vehicle control group and 120.748 percentage of the vehicle control group. For the same compound, where the note is “P053 100 nM”, the “24:1 HexCer level” value is 91.7407 percentage of the vehicle control group and 95.5309 percentage of the vehicle control group and 96.8003 percentage of the vehicle control group and 101.48 percentage of the vehicle control group and 104.186 percentage of the vehicle control group and 105.129 percentage of the vehicle control group and 100.754 percentage of the vehicle control group and 113.013 percentage of the vehicle control group; the “24:1 SM level” value was 111.218 percentage of the vehicle control group and 94.5875 percentage of the vehicle control group and 99.337 percentage of the vehicle control group and 100.942 percentage of the vehicle control group and 110.843 percentage of the vehicle control group and 105.998 percentage of the vehicle control group and 112.241 percentage of the vehicle control group and 112.423 percentage of the vehicle control group. Besides, under “P053 300 nM”, the “14:0 SM level” value was 100.258 percentage of the vehicle control group and 95.2604 percentage of the vehicle control group and 95.8152 percentage of the vehicle control group and 99.1466 percentage of the vehicle control group and 109.96 percentage of the vehicle control group and 116.62 percentage of the vehicle control group and 129.695 percentage of the vehicle control group; the “16:0 Cer level” value was 91.1433 percentage of the vehicle control group and 77.1433 percentage of the vehicle control group and 90.5634 percentage of the vehicle control group and 83.6347 percentage of the vehicle control group and 92.4764 percentage of the vehicle control group and 98.9865 percentage of the vehicle control group and 90.2518 percentage of the vehicle control group; the “16:0 HexCer level” value was 76.4857 percentage of the vehicle control group and 73.433 percentage of the vehicle control group and 81.5302 percentage of the vehicle control group and 81.9705 percentage of the vehicle control group and 86.9585 percentage of the vehicle control group and 88.1949 percentage of the vehicle control group and 93.4284 percentage of the vehicle control group.
